One test has as its target T1, FGFR3 (V555M) (Homo sapiens, UniProt P22607, V555M).
T1 construct: made in house; host or cells: E. coli (BL21-derived), T7 phage
Kind of test: Kinase binding assay (kinase-tagged T7 phage, affinity beads, qPCR), Kd. The settings on record: V555M mutant; read-out: FGFR3 (V555M) (Kd nM). Summed up: (§1)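 Readout was qPCR of kinase eluted from ligand-coated affinity beads after competition with test compound. Kinases were expressed as T7 phage fusions in E. coli. Binding constants were derived by non-linear least-squares Hill fitting, Hill slope −1.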
A general note: In qPCR the cycle at which signal appears reflects the starting amount.

The target of the next test is T2, FGFR4 (Homo sapiens, UniProt P22455).
T2 construct: made in house; host or cells: E. coli (BL21-derived), T7 phage
Described as above. Particulars: read-out: FGFR4 (Kd nM). In a few lines:
as §1

Another test concerns the target T3, FGFR3 (Homo sapiens, UniProt P22607).
T3 construct: made in house; host or cells: E. coli (BL21-derived), T7 phage
The test is described as above. Particulars: read-out: FGFR3 (Kd nM). In a few lines:
as §1

The next test addresses T4, FGFR1 (Homo sapiens, UniProt P11362).
T4 construct: made in house; host or cells: E. coli (BL21-derived), T7 phage
The test is described as above. Particulars: read-out: FGFR1 (Kd nM). In a few lines: as §1

The next test addresses T5, FGFR2 (Homo sapiens, UniProt P21802).
T5 construct: made in house; host or cells: E. coli (BL21-derived), T7 phage
The description is as above. Particulars: read-out: FGFR2 (Kd nM). Summed up: as §1

The test system of test [1] is KG-1 cell line (FGFR 1-fusion). The experiment in a line: Cancer cell line cell viability assay (Cell Titer-Glo), 72 hr. It counts as cell-based. The settings on record: Homo sapiens, KG-1, KG-1 cell line (FGFR1-fusion). In a few lines: (§2)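 ATP-based luminescence (Cell Titer-Glo 2.0) measured viability after 72 h (KG-1, RT112/84) or 120 h (MDA-MB-453, HuH7) compound exposure. Dosing was nine 4-fold steps starting at 3 μM, in triplicate, on overnight-plated cells. IC50 came from a variable-slope 4-parameter fit of % DMSO control.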
A general note: Cellular ATP, detected with luciferase, serves as a proxy for viable cell number.

Test [2] deals with KATO-III cell line (FGFR2 amplification). The description is as above. It counts as cell-based. Particulars: Homo sapiens, KATO III. Summed up: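 Intracellular ATP was measured by Cell Titer-Glo 2.0 luminescence after cells were incubated with compound dilutions (top 3 μM, 4-fold, 9 doses). Values were expressed relative to DMSO-treated cells and IC50 was calculated from a variable-slope dose-response curve.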

Test [3] has as its system RT112/84 cell line (FGFR3-fusion). The description is as above. It counts as cell-based. Particulars: Homo sapiens, RT112/84, RT112/84 cell line (FGFR3-fusion). In a few lines: as §2

Each structure is given as a SMILES string.

The Kd is the concentration at which binding is half-saturated. As usually defined, the IC50 is the concentration that inhibits the measured activity by half. Low readings indicate inhibition by little substance, high ones a need for much substance.

T3 sequence (P22607 23-806): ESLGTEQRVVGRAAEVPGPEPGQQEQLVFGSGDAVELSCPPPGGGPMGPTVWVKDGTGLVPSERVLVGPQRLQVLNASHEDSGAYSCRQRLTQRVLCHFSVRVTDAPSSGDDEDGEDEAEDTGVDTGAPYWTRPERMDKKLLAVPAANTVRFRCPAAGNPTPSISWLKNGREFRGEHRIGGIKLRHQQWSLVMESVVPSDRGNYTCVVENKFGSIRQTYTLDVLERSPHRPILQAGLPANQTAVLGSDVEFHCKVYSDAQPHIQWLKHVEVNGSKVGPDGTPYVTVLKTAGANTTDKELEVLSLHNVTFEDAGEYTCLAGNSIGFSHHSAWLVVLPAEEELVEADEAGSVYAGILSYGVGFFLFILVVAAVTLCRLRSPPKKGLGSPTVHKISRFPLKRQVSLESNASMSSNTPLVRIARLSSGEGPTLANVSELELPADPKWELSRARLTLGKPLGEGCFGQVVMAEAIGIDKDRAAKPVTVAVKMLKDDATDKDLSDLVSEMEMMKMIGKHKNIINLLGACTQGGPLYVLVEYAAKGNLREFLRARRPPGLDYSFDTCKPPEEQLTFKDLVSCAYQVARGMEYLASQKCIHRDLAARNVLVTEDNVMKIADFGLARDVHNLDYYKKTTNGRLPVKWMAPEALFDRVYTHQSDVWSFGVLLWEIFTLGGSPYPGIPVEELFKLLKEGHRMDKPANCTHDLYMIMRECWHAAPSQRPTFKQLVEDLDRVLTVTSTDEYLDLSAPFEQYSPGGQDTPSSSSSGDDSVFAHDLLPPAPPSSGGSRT
T4 sequence (P11362 22-822): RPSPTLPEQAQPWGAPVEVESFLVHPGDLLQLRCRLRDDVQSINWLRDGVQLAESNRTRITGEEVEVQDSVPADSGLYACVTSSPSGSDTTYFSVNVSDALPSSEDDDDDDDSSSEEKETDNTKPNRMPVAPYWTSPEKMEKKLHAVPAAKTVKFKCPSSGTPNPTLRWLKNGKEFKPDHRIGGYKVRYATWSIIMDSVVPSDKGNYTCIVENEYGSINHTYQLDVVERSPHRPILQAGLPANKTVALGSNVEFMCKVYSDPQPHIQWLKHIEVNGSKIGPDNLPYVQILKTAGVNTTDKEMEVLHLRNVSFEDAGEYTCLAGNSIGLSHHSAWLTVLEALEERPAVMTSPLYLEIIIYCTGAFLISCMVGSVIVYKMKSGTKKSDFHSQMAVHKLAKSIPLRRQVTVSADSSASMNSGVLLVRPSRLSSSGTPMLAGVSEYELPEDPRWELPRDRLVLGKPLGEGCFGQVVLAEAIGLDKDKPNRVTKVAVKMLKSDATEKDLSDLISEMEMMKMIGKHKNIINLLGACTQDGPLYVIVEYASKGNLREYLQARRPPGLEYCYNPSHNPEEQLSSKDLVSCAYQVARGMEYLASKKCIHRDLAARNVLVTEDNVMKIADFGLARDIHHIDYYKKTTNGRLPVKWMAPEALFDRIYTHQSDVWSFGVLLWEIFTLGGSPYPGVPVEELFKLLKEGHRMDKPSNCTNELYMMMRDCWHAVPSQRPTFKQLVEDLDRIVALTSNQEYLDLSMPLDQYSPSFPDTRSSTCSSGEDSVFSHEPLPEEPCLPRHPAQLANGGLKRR
T1 sequence (P22607 23-806 V555M): as the sequence (P22607 23-806) above, with V533M counted along it
T2 sequence (P22455 22-802): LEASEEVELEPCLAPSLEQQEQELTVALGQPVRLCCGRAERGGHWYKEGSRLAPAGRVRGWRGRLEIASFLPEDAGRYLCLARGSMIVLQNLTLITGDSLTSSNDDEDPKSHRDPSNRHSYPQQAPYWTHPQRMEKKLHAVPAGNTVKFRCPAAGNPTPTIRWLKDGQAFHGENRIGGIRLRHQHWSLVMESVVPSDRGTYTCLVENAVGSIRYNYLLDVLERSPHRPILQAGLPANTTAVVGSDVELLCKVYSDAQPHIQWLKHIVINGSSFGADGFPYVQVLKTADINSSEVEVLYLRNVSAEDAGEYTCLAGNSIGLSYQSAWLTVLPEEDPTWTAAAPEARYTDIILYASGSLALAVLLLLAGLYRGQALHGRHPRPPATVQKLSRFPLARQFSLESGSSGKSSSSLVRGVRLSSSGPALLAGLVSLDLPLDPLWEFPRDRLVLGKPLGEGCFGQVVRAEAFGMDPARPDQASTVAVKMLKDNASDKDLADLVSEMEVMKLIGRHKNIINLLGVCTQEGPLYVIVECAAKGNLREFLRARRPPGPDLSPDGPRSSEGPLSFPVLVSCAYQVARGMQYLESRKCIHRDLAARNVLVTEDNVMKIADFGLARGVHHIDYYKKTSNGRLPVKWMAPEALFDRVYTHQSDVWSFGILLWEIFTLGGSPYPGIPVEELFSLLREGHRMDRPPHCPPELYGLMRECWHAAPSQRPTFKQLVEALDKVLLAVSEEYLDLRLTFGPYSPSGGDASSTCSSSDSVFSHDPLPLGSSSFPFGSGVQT
T5 sequence (P21802 22-821): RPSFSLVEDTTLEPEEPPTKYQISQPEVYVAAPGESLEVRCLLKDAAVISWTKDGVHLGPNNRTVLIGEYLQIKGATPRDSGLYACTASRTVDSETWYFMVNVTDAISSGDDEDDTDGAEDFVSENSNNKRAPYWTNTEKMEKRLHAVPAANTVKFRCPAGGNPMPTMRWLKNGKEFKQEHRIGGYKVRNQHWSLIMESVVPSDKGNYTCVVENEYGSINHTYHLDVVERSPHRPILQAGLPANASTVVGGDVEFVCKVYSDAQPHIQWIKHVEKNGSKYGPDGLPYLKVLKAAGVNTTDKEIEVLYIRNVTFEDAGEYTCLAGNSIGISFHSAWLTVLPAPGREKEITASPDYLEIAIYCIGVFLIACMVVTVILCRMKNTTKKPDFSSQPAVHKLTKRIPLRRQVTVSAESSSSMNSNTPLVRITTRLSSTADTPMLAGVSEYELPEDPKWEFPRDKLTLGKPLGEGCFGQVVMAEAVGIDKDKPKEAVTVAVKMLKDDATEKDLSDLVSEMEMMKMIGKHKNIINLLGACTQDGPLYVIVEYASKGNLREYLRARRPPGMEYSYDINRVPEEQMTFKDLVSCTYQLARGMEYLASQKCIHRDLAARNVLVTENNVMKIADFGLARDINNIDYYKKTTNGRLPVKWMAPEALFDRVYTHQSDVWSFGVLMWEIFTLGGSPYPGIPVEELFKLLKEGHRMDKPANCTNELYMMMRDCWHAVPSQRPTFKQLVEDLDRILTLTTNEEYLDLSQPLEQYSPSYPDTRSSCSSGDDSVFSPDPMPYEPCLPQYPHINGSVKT

As for `COc1cc2[nH]nc(-c3ccc(N4CC(C)(N[C@H]5CCOC5)C4)nc3)c2cc1O[C@H](C)c1c(Cl)cncc1Cl` [Example 66, 1-(5-(5-((R)-1-(3,5-dichloropyridin-4-yl)ethoxy)-6-methoxy-1H-indazol-3-yl)pyridin-2-yl)-3-methyl-N-((S)-tetrahydrofuran-3-yl)azetidin-3-amine], the Kd at FGFR3 (V555M), on FGFR4, on FGFR3, on FGFR1 and on FGFR2 was 1 to 50 nM in each case. In addition, the IC50 in test [1], in test [2] and in test [3] was 0.0001 to 0.05 µM throughout.
Turning to `C[C@@H](Oc1cc2c(-c3ccc(N4CC(C)(CP(C)(C)=O)C4)nc3)n[nH]c2cc1F)c1c(Cl)cncc1Cl` [Example 67, (R)-((1-(5-(5-(1-(3,5-dichloropyridin-4-yl)ethoxy)-6-fluoro-1H-indazol-3-yl)pyridin-2-yl)-3-methylazetidin-3-yl)methyl)dimethylphos-phine oxide], the dissociation constant (Kd) on FGFR3 (V555M), at FGFR4, at FGFR3, at FGFR1 and at FGFR2 was 1 to 50 nM throughout. The values for the IC50 in test [1], in test [2] and in test [3] were 0.2 to 1 µM, 0.0001 to 0.05 µM and 0.0001 to 0.05 µM, respectively.
`Cc1ncc(Cl)c([C@@H](C)Oc2ccc3[nH]nc(-c4ccc(N5CC(C)(NC6COC6)C5)nc4)c3c2)c1Cl` [Example 70, 1-[5-[5-[(1R)-1-(3,5-dichloro-2-methyl-4-pyridyl)ethoxy]-1H-indazol-3-yl]-2-pyridyl]-3-methyl-N-(oxetan-3-yl)azetidin-3-amine]: the dissociation constant (Kd) at FGFR3 (V555M), on FGFR4, at FGFR3, at FGFR1 and on FGFR2 was 1 to 50 nM each time. Besides, the IC50 in test [1] lay in the range of 0.05 to 0.2 µM; in test [2] it was 0.0001 to 0.05 µM; in test [3], 0.0001 to 0.05 µM.
`Cc1ncc(Cl)c([C@@H](C)Oc2ccc3[nH]nc(-c4ccc(N5CC(C)(NC6CCC6)C5)nc4)c3c2)c1Cl` [Example 71, N-cyclobutyl-1-[5-[5-[(1R)-1-(3,5-dichloro-2-methyl-4-pyridyl)ethoxy]-1H-indazol-3-yl]-2-pyridyl]-3-methyl-azetidin-3-amine]: the Kd on FGFR3 (V555M), at FGFR4, at FGFR3, on FGFR1 and on FGFR2 was 1 to 50 nM each time. Besides, the IC50 in test [1] is 0.2 to 1 µM; in test [2] it was 0.05 to 0.2 µM; in test [3], 0.0001 to 0.05 µM.
Take `CCN(CC)C1(C)CN(c2ccc(-c3n[nH]c4ccc(O[C@H](C)c5c(Cl)cnc(C)c5Cl)cc34)cn2)C1` [Example 72, 1-[5-[5-[(1R)-1-(3,5-dichloro-2-methyl-4-pyridyl)ethoxy]-1H-indazol-3-yl]-2-pyridyl]-N,N-diethyl-3-methyl-azetidin-3-amine]: the dissociation constant Kd on FGFR3 (V555M), on FGFR4, at FGFR3, on FGFR1 and on FGFR2 was 1 to 50 nM throughout. The IC50 in test [1] fell in the range of 0.2 to 1 µM; in test [2], 0.05 to 0.2 µM; in test [3], 0.0001 to 0.05 µM.
Regarding `COc1cc2[nH]nc(-c3ccc(N4CC(C)(N[C@@H]5CCOC5)C4)nc3)c2cc1O[C@H](C)c1c(Cl)cncc1Cl` [Example 73, 1-(5-(5-((R)-1-(3,5-dichloropyridin-4-yl)ethoxy)-6-methoxy-1H-indazol-3-yl)pyridin-2-yl)-3-methyl-N-((R)-tetrahydrofuran-3-yl)azetidin-3-amine], the Kd at FGFR3 (V555M), on FGFR4, at FGFR3, at FGFR1 and at FGFR2 was 1 to 50 nM in each case. Moreover, the IC50 in test [1], in test [2] and in test [3] was 0.0001 to 0.05 µM each time.
In the case of `C[C@@H](Oc1ccc2[nH]nc(-c3ccc(N4CC(C)(CN(C)S(C)(=O)=O)C4)nc3)c2c1)c1c(Cl)cncc1Cl` [Example 74, (R)-N-((1-(5-(5-(1-(3,5-dichloropyridin-4-yl)ethoxy)-1H-indazol-3-yl)pyridin-2-yl)-3-methylazetidin-3-yl)methyl)-N-methylmethanesulfona-mide], the dissociation constant Kd on FGFR3 (V555M), at FGFR4, on FGFR3, on FGFR1 and at FGFR2 was 1 to 50 nM in each case. Also, the IC50 in test [1] was 0.05 to 0.2 µM; in test [2] it was 0.0001 to 0.05 µM; in test [3] it was 0.0001 to 0.05 µM.
For `C[C@@H](Oc1ccc2[nH]nc(-c3ccc(N4CC(C)(NCCO)C4)nc3)c2c1)c1c(Cl)cncc1Cl` [Example 89, (R)-2-((1-(5-(5-(1-(3,5-dichloropyridin-4-yl)ethoxy)-1H-indazol-3-yl)pyridin-2-yl)-3-methylazetidin-3-yl)amino)ethan-1-ol], the Kd at FGFR3 (V555M), at FGFR4, on FGFR3, at FGFR1 and at FGFR2 was 1 to 50 nM throughout. For the same molecule, the half-maximal inhibitory concentration (IC50) in test [1], in test [2] and in test [3] was 0.0001 to 0.05 µM throughout.
As to `C[C@H](O)CNC1(C)CN(c2ccc(-c3n[nH]c4ccc(O[C@H](C)c5c(Cl)cncc5Cl)cc34)cn2)C1` [Example 90, (S)-1-((1-(5-(5-((R)-1-(3,5-dichloropyridin-4-yl)ethoxy)-1H-indazol-3-yl)pyridin-2-yl)-3-methylazetidin-3-yl)amino)propan-2-ol], the Kd at FGFR3 (V555M), at FGFR4, at FGFR3, on FGFR1 and on FGFR2 was 1 to 50 nM each time. Also, the half-inhibitory concentration (IC50) in test [1], in test [2] and in test [3] was 0.0001 to 0.05 µM throughout.
In the case of `C[C@@H](O)CNC1(C)CN(c2ccc(-c3n[nH]c4ccc(O[C@H](C)c5c(Cl)cncc5Cl)cc34)cn2)C1` [Example 91, (R)-1-((1-(5-(5-((R)-1-(3,5-dichloropyridin-4-yl)ethoxy)-1H-indazol-3-yl)pyridin-2-yl)-3-methylazetidin-3-yl)amino)propan-2-ol], the Kd at FGFR3 (V555M), at FGFR4, at FGFR3, on FGFR1 and on FGFR2 was 1 to 50 nM throughout. Besides, the half-inhibitory concentration (IC50) in test [1], in test [2] and in test [3] was 0.0001 to 0.05 µM in each case.
For `C[C@@H](Oc1ccc2[nH]nc(-c3ccc(N4CC(C)(OCC(C)(C)O)C4)nc3)c2c1)c1c(Cl)cncc1Cl` [Example 93, (R)-1-((1-(5-(5-(1-(3,5-dichloropyridin-4-yl)ethoxy)-1H-indazol-3-yl)pyridin-2-yl)-3-methylazetidin-3-yl)oxy)-2-methylpropan-2-ol], the Kd at FGFR3 (V555M), on FGFR4, on FGFR3, at FGFR1 and at FGFR2 was 1 to 50 nM each time. Moreover, the IC50 in test [1] lay within 0.05 to 0.2 µM; in test [2], 0.0001 to 0.05 µM; in test [3], 0.0001 to 0.05 µM.
With `C[C@@H](Oc1ccc2[nH]nc(-c3ccc(N4CC(C)(NC(=O)CN(C)C)C4)nc3)c2c1)c1c(Cl)cncc1Cl` [Example 95, (R)-N-(1-(5-(5-(1-(3,5-dichloropyridin-4-yl)ethoxy)-1H-indazol-3-yl)pyridin-2-yl)-3-methylazetidin-3-yl)-2-(dimethylamino)acetamide], the Kd on FGFR3 (V555M), on FGFR4, on FGFR3, on FGFR1 and on FGFR2 was 1 to 50 nM throughout. Besides, the IC50 in test [1], in test [2] and in test [3] was 0.0001 to 0.05 µM throughout.
In the case of `C[C@@H](Oc1ccc2[nH]nc(-c3cnc(N4CC(C)(N5CC(C)(O)C5)C4)c(F)c3)c2c1)c1c(Cl)cncc1Cl` [Example 96, (R)-1′-(5-(5-(1-(3,5-dichloropyridin-4-yl)ethoxy)-1H-indazol-3-yl)-3-fluoropyridin-2-yl)-3,3′-dimethyl-[1,3′-biazetidin]-3-ol], the Kd on FGFR3 (V555M), at FGFR4, at FGFR3, at FGFR1 and on FGFR2 was 1 to 50 nM throughout. For the same molecule, the IC50 in test [1], in test [2] and in test [3] was 0.0001 to 0.05 µM each time.

Source of the values: US20250368666A1, “INDAZOLE COMPOUNDS” (TYRA BIOSCIENCES, INC., priority 2022, published 2025).
